Molecules are shown by their SMILES.

Two compounds from patent publication US11820755B2, “Uracil compound and use thereof” (Sumitomo Chemical Company, Limited, priority 2018, dated 2023) can be followed below.

For assay [1], the system named is barley scald fungi (Rhynchosporium secalis). The assay is described as follows: Titer plate growth test of barley scald fungi in potato broth medium (absorbance at 600 nm). It counts as cell-based. The settings on record: 4.7 ppm, cultured at 18° C. for 7 days. Here is the method: Each 1 μL of a solution containing the compound A at a predetermined concentration in dimethylsulfoxide was dispensed into a titer plate (96 wells), and then each 150 μL of potato broth medium containing suspension of spore of wheat leaf stripe fungi (Septoria tritici) was dispensed so that the concentration of the compound A was finally 4.7 ppm. The plate was cultured at 18° C. for 4 days, thereby allowing the wheat leaf stripe fungi to undergo proliferation, and the absorbance at 600 nm of each well of the titer plate was then measured to determine a degree of growth of the wheat leaf stripe fungi. The efficacy was calculated from the determined degree of growth by the below-mentioned “Equation 1”. Efficacy (%)=100×(X−Y)/X “Equation 1” wherein • X: Degree of fungal growth in non-treated area • Y: Degree of fungal growth in treated area The “Non-treated area” represents an area where a similar treatment procedure to that of the treated area except for not using the compound A is done. […] The plate was cultured at 18° C. for 7 days, thereby allowing the barley scald fungi to undergo proliferation, and the absorbance at 600 nm of each well of the titer plate was then measured to determine a degree of growth of the barley scald fungi. The efficacy was calculated from the determined degree of growth by the below-mentioned “Equation 1”. […]

Assay [2] relates to wheat leaf stripe fungi (Septoria tritici). The assay is described as follows: Titer plate growth test of wheat leaf stripe fungi in potato broth medium (absorbance at 600 nm). It counts as cell-based. The settings on record: cultured at 18° C. for 4 days. Here is the method:
Each 1 μL of a solution containing the compound A at a predetermined concentration in dimethylsulfoxide was dispensed into a titer plate (96 wells), and then each 150 μL of potato broth medium containing suspension of spore of wheat leaf stripe fungi (Septoria tritici) was dispensed so that the concentration of the compound A was finally 4.7 ppm. The plate was cultured at 18° C. for 4 days, thereby allowing the wheat leaf stripe fungi to undergo proliferation, and the absorbance at 600 nm of each well of the titer plate was then measured to determine a degree of growth of the wheat leaf stripe fungi. The efficacy was calculated from the determined degree of growth by the below-mentioned “Equation 1”. Efficacy (%)=100×(X−Y)/X “Equation 1” wherein • X: Degree of fungal growth in non-treated area • Y: Degree of fungal growth in treated area The “Non-treated area” represents an area where a similar treatment procedure to that of the treated area except for not using the compound A is done. Each 1 μL of a solution containing the compound A at a predetermined concentration in dimethylsulfoxide was dispensed into a titer plate (96 wells), and then each 150 μL of potato broth medium containing suspension of spore of wheat leaf stripe fungi was dispensed so that the concentration of the compound A was finally 1.2 ppm. The plate was cultured at 18° C. for 4 days, thereby allowing the wheat leaf stripe fungi to undergo proliferation, and the absorbance at 600 nm of each well of the titer plate was then measured to determine a degree of growth of the wheat leaf stripe fungi. The efficacy was calculated from the determined degree of growth by the below-mentioned “Equation 1”. As a result, the efficacy was 53%. The test was carried out according to Test Example 1 using the compound B instead of the compound A. As a result, the efficacy was 45%. The test was carried out according to Test Example 2 using the compound B instead of the compound A. As a result, the efficacy was 12%.

The mark [3] stands for this setting: 1.2 ppm, wheat leaf stripe fungi.

In the case of `CCOc1ncccc1Oc1cc(-n2c(=O)cc(C(F)(F)F)n(C)c2=O)c(F)cc1Cl` [Compound A], the “Efficacy (%)” value in assay [1] is 94%; in assay [2] (setting [3]), 53%; in assay [2] (4.7 ppm, Septoria tritici), 73%.

As to `COc1ncccc1Oc1cc(-n2c(=O)cc(C(F)(F)F)n(C)c2=O)c(F)cc1Cl` [Compound B], the “Efficacy (%)” value came out at 41% in assay [1]; 12% in assay [2] (setting [3]); 45% in assay [2] (4.7 ppm, Septoria tritici).
